Entries after “also recorded” stand apart in the source; their conditions may differ. Where a SMILES comes first, the peptide text is derived from it. The star is where a group is joined. Cbz = O=C(OCc1ccccc1)*
Columns and labels:
Type in all cases: cell-based
eIF2α = experiment: Western blot for eIF2α phosphorylation in RPMI8226 cells; settings: for eIF2α phosphorylation: single agent, acute phase (Salubrinal 8 hours; MG-132 8-24 hours)
Experimental: (§1) Reagents, antibodies, RT-PCR, cell lines and tissue culture, plasmids. Proteasome inhibitor (MG-132, Velcade®; each commercially available) treatments were performed using 400 nM MG-132 or 4 nM Bortezomib (Velcade®) for 24 hours. The drug was then removed by serial washes with PBS and the remaining viable cells were replated. […] RPMI8226 cells contain a c-MYC insertion on t(16;22)(q32;q11):der16; U266B1 cells (t(11;14)) were from ATCC. Cells were cultured according to ATCC recommendations. Antibodies (identified by the antigen specifically recognized): p-Rb, Rb, p-eIF2α, eIF2α, GCN2, p-GCN2, p-PKR and PKR from Cell Signaling (Beverly, Mass.), p-PERK and PERK from Santa Cruz Biotechnology (Santa Cruz, Calif.), BiP from BD (San Jose, Calif.), GAPDH from Calbiochem (Beverly, Mass.), and β-tubulin from Abcam (Cambridge, Mass.). Total RNA was extracted using Trizol (Invitrogen, Carlsbad, Calif.). Primer sequences were published previously (Sequeira, et al., PLoS ONE 2(7):e615 2007, incorporated herein by reference in its entirety). The pCLBabe-eIF2αS51D plasmid was provided by Dr. David Schubert (Salk Institute, La Jolla, Calif.) and can be constructed using known techniques. Transfection of RPMI8226 cells was performed using Amaxa technology according to the manufacturer's instructions (Gaithersburg, Md.).
(§2) Viability assay, Immunoblotting. Cell viability was assessed using trypan blue. Immunoblotting was performed using convention techniques, as described previously Aguirre-Ghiso, et al., Cancer Res. 63(7):1684-1695 2003, incorporated herein by reference in its entirety.
(§3) Image quantification and statistical analysis. Image quantification was performed using ImageJ from NIH. Statistical analyses were performed using Prism 4.0 from GraphPad Software (La Jolla, Calif.) and the Student's t-test.

RPMI8226 cells [1] = experiment: Cell cycle analysis by propidium iodide staining and flow cytometry; settings: for cell death (sub-G0 population): MG-132 400 nM or Bortezomib 4 nM, 24-48 hours
Experimental: (§4) Reagents, antibodies, RT-PCR, cell lines and tissue culture, plasmids. Proteasome inhibitor (MG-132, Velcade®; each commercially available) treatments were performed using 400 nM MG-132 or 4 nM Bortezomib (Velcade®) for 24 hours. The drug was then removed by serial washes with PBS and the remaining viable cells were replated. Salubrinal treatments were performed using the drug at 5 or 10 μg/ml, as indicated, for 24 hours. RPMI8226 cells contain a c-MYC insertion on t(16;22)(q32;q11):der16; U266B1 cells (t(11;14)) were from ATCC. Cells were cultured according to ATCC recommendations. Antibodies (identified by the antigen specifically recognized): p-Rb, Rb, p-eIF2α, eIF2α, GCN2, p-GCN2, p-PKR and PKR from Cell Signaling (Beverly, Mass.), p-PERK and PERK from Santa Cruz Biotechnology (Santa Cruz, Calif.), BiP from BD (San Jose, Calif.), GAPDH from Calbiochem (Beverly, Mass.), and β-tubulin from Abcam (Cambridge, Mass.). Total RNA was extracted using Trizol (Invitrogen, Carlsbad, Calif.). Primer sequences were published previously (Sequeira, et al., PLoS ONE 2(7):e615 2007, incorporated herein by reference in its entirety). The pCLBabe-eIF2αS51D plasmid was provided by Dr. David Schubert (Salk Institute, La Jolla, Calif.) and can be constructed using known techniques. Transfection of RPMI8226 cells was performed using Amaxa technology according to the manufacturer's instructions (Gaithersburg, Md.).
Cell cycle analysis, label retention assay. Cell cycle analysis was performed using propidium iodide (PI)/RNAse staining buffer from BD according to the manufacturer's instruction. For label retention and viability quantification, cells were treated with proteasome inhibitors or DMSO for 24 hours, then stained with 50 nM CFDA/SE (Molecular Probes, Eugene, Oreg.) for 15 minutes and replated. Prior to analysis, cells were stained using Hoechst-33342 (10 μg/ml) for 15 minutes at 4° C. to determine cell viability. Cells were then fixed using 3% paraformaldehyde for 20 minutes and analyzed by flow cytometry (LSR-II from BD).

RPMI8226 cells [2] = experiment: Viability assay (trypan blue)
Experimental: as §1, §2

CHOP mRNA = experiment: RT-PCR for CHOP mRNA in RPMI8226 cells; settings: acute combination of Salubrinal and Bortezomib (4 nM, 8 hours)
Experimental: as §1, with “Proteasome inhibitor (MG-132, Velcade®; each commercially available) treatments were performed using 400 nM MG-132 or 4 nM Bortezomib (Velcade®) for 24 hours.” left out
as §3

U266B1 cells = experiment: Viability assay (trypan blue); settings: Salubrinal combined with MG-132 or Bortezomib, 24 hours
Experimental: as §4, with “Transfection of RPMI8226 cells was performed using Amaxa technology according to the manufacturer's instructions (Gaithersburg, Md.).” left out
Viability assay, Immunoblotting. Cell viability was assessed using trypan blue. […]

U937 cells = experiment: Bortezomib-induced killing, with or without Salubrinal
[3] = test system: Raji Burkitt's lymphoma cells; experiment: as above
[4] = test system: K-562 chronic myeloid leukemia cells; experiment: as above
HEp3 HNSCC cells = experiment: as above
[5] = test system: diffuse B-cell lymphoma U937 cells; experiment: as above; settings: 4 nM Bortezomib
[6] = Bortezomib combined with Salubrinal

SMILES | eIF2α phosphorylation (eIF2α) | number of cells in G0-G1 in cells surviving proteasome inhibition (RPMI8226 cells [1]; MG-132 400 nM or Bortezomib 4 nM for 24 hours, then washout, control about 35%) | cell death (sub-G0 population) (RPMI8226 cells [1]) | absolute number of viable cells after drug washout and replating (RPMI8226 cells [2]; RPMI8226, 400 nM MG-132 for 24 hours, then washed) | CHOP mRNA (CHOP mRNA) | cell death (U266B1 cells) | enhancement of Bortezomib-induced killing by Salubrinal (U937 cells) | p-eIF2α levels (eIF2α; Salubrinal combined with proteasome inhibitor, 8 hours) | induction of killing [3, 6] | enhancement of Bortezomib-induced killing by Salubrinal [4] | induction of killing (HEp3 HNSCC cells; [6]) | basal viability or growth (RPMI8226 cells [2]; RPMI8226, 5 μM Salubrinal alone) | cell death (RPMI8226 cells [2]; RPMI8226, Salubrinal combined with MG-132 or Bortezomib, 24 hours) | reduction in the number of viable cells (RPMI8226 cells [2]; arrested cells surviving proteasome inhibition, 5 μM Salubrinal, 24 hours) | sensitivity to Bortezomib [5] | induction of killing ([3]; Bortezomib alone) | sensitivity to Bortezomib ([4]; 4 nM Bortezomib) | induction of killing (HEp3 HNSCC cells; Bortezomib alone)
CC(C)C[C@@H](C=O)NC(=O)[C@H](CC(C)C)NC(=O)[C@H](CC(C)C)NC(=O)OCc1ccccc1 [MG-132] (Cbz-Leu-Leu-Leu-aldehyde) | increased eIF2α-phosphorylation | 55-65% | strongly induced cell death | remained constant for 7 days | – | – | – | – | – | – | – | – | – | – | – | – | – | –
O=C(/C=C/c1ccccc1)NC(NC(=S)Nc1cccc2cccnc12)C(Cl)(Cl)Cl (centres unmarked) [Salubrinal] | increased phosphorylation of eIF2α | – | – | – | strong induction | 70-90% | neither of these cell lines was susceptible | highest levels of p-eIF2α | neither Bortezomib alone nor its combination with Salubrinal was effective | neither of these cell lines was susceptible | neither Bortezomib alone nor its combination with Salubrinal was effective | no significant induction of cell death; also recorded: no effect | 70-90% | approximately 10 fold | – | – | – | –
CC(C)C[C@H](NC(=O)[C@H](Cc1ccccc1)NC(=O)c1cnccn1)B(O)O [Bortezomib] | – | – | strongly induced cell death | – | – | – | – | – | – | – | – | – | – | – | highly sensitive | neither Bortezomib alone nor its combination with Salubrinal was effective | intermediately sensitive | neither Bortezomib alone nor its combination with Salubrinal was effective
